Converted amounts (≈) assume the structure as drawn. Like-named read-outs stand apart in the source and are kept apart here.
What was measured:
[1] = system: C. glabrata (ATCC 2001); assay: Secondary C. glabrata inhibition in glycerol media (OD600); type: cell-based, Candida glabrata; conditions: for IC50: read-out: Growth Inhibition Activity, IC50 (μM), C. glabrata (n = 3) On glycerol
Text: (§1) Cell Lines. • Candida albicans CaCi-2; a drug-resistant clinical isolate was provided by the Whitehead Institute (Redding et al., Clin. Infect. Dis. 1994, 18(2):240-2). This strain was used for the primary assay. • Candida albicans CaCi-17; a strongly drug-resistant clinical isolate was provided by the Whitehead Institute (Redding et al., Clin. Infect. Dis. 1994, 18(2):240-2). This strain was used for the primary assay • Saccharyomyces cerevisiae W303-1a (ATCC 208352); a well-characterized Saccharomyces strain used for determination of glycolytic vs. respiratory metabolism, as well as in the mitochondrial disruption assay. • Candida glabrata (ATCC 2001); used for determination of glycolytic vs. respiratory metabolism. • NIH-3T3 mammalian fibroblasts (ATCC; CRL no.1658); used for mammalian toxicity assays. […]
(§2) Saccharomyces, while not a major human pathogen, is a useful lab model with well-developed genetic tools available. Candida glabrata is an increasingly prominent clinical problem for immune-compromised patients but with fewer genetic tools available with which to study it. These organisms can utilize alternative metabolic pathways to support growth and survival depending on the carbon source. By comparing the concentration-dependent inhibition of yeast growth in glycerol relative to glucose media, a quantitative assessment of a compound's ability to disrupt respiration can be determined. […].
(§3) Clear, flat bottom, black 384-well plates (Corning Catalog no. 3712BC; Lot no. 35808016); Amphotericin B (Sigma Catalog no. A2411) 15 mM stock solution in DMSO; Pen/Strep (Gibco Catalog no. 10378-016; Lot no21040170) 100× in PBS.
(§4) Synthetic defined growth medium. Complete Supplement Mixture; (Sunrise Science, Catalog No. 1001-100); Yeast Nitrogen Base without ammonium sulfate (MP Biomedicals, Catalog No. 4027-012); Glycerol (Sigma Catalog No. G-9012). • Prepare medium by dissolving 0.79 g Complete Supplement Mixture and 1.7 g Yeast Nitrogen Base in 800 mL water. • Add 20 mL of glycerol. Adjust final volume to 1000 mL. Filter sterilize.
(§5) Fungal Inoculum. Test Strains: C. glabrata (ATCC 2001) and Saccharomyces cerevisiae W303. • Inoculate 100 μL of yeast from cryopreserved stock into 250 mL shaker flask containing 20 mL growth medium. Shake at 30° C. overnight (about 16 hours). • Read OD 600 of 1 mL of fungal culture in a cuvette using a standard optical density reader (Eppendorf BioPhotometer Plus), with growth medium as a background blank. • Dilute to desired volume of fungal inoculum to produce an OD600 reading of 0.005 (S. cerevisiae) or 0.004 (C. glabrata).
(§6) Procedures • Use a Thermo Combi nL to dispense 20 μL/well of assay media into all wells. • Add 2 μL of Amphotericin B to control wells. • Pin 100 nL of test compound from compound plates into assay plates using a CyBi-Well pin tool. • Dispense 20 μL/well of culture into the assay media in all wells. • Incubate the plates in a humidified (90% humidity) Liconic incubator at 37° C. without agitation for 48 hours. • Shake plates briefly. • Read OD600 of wells on a standard plate reader as measure of relative fungal growth. Envision (Perkin Elmer) plate reader settings: Ex Photometric 600, Top read. Secondary Glucose Assay Protocol (AID 623971, 623967, 624013, 624025) Materials and Reagents

[2] = system: C. glabrata (ATCC 2001); assay: Secondary C. glabrata inhibition in glucose media (OD600); type: cell-based, Candida glabrata; conditions: for IC50: read-out: Growth Inhibition Activity, IC50 (μM), C. glabrata (n = 3) On glucose
Text: as §1, §2, §6
(§7) Clear, flat bottom, black 384-well plates (Corning, Catalog No. 3712BC; Lot No. 35808016); Amphotericin B (Sigma, Catalog no. A2411) 15 mM stock solution in DMSO; Pen/Strep (Gibco, Catalog No. 10378-016; Lot no21040170) 100× in PBS.
(§8) Synthetic defined growth medium. Complete Supplement Mixture; (Sunrise Science, Catalog No. 1001-100); Yeast Nitrogen Base without ammonium sulfate (MP Biomedicals, Catalog No. 4027-012); Glucose (Sigma, Catalog No. G7021). • Prepare medium by dissolving 0.79 g of Complete Supplement Mixture and 1.7 g of Yeast Nitrogen Base in 800 mL of water. • Add 20 g of glucose. Adjust final volume to 1000 mL. Filter sterilize.
(§9) Fungal Inoculum. Test Strains: C. glabrata (ATCC 2001) and Saccharomyces cerevisiae W303. • Inoculate […] of yeast from cryopreserved stock into a 250 mL shaker flask containing 20 mL of growth medium. Shake at 30° C. overnight (about 16 hours). • Read OD 600 of 1 mL of fungal culture in a cuvette using a standard optical density reader (Eppendorf BioPhotometer Plus), with growth medium as a background blank. • Dilute to desired volume of fungal inoculum to produce an OD600 reading of 0.005 (S. cerevisiae) or 0.004 (C. glabrata).
as §6, with “read. 4.5.” for “read.”, “Mitochondrial Disruption” for “Glucose”, “Assay” for “Assay Protocol”, “No. 624062” for “623971, 623967, 624013, 624025) Materials”, “624068)” for “Reagents”

[3] = system: Saccharomyces cerevisiae W303; assay: Secondary S. cerevisiae inhibition in glycerol media (OD600); type: cell-based; conditions: for IC50: read-out: Growth Inhibition Activity, IC50 (μM), S. cerevisiae (n = 3) On glycerol
Text: as §1, §2, §3, §4, §5, §6

[4] = system: Saccharomyces cerevisiae W303; assay: Secondary S. cerevisiae inhibition in glucose media (OD600); type: cell-based; conditions: for IC50: read-out: Growth Inhibition Activity, IC50 (μM), S. cerevisiae (n = 3) On glucose
Text: as §1, §2, §6, §7, §8, §9
as §6, with “read. 4.5.” for “read.”, “Mitochondrial Disruption” for “Glucose”, “Assay” for “Assay Protocol”, “No. 624062” for “623971, 623967, 624013, 624025) Materials”, “624068)” for “Reagents”

[5] = system: Candida albicans CaCi-2; assay: Primary assay: C. albicans CaCi-2 growth inhibition (Alamar Blue); type: cell-based; as to Growth Inhibition Activity, IC50 (μM), C. albicans CaCi-2, values marked ‡: less than 0.10 µM in AID 623899
[6] = system: Candida albicans CaCi-17; assay: Primary assay: C. albicans CaCi-17 growth inhibition (Alamar Blue); type: cell-based; conditions: Candida albicans, read-out: Growth Inhibition Activity, IC50 (μM), C. albicans (n = 3) CaCi-17
[7] = system: NIH-3T3 mammalian fibroblasts; assay: Counterscreen mammalian cell toxicity assay (Alamar Blue); type: cell-based, murine; conditions: for Growth Inhibition Activity, IC50 (μM), 3T3 Fibroblasts (n = 1): Table 4, 48 hours, tested up to 26 μM
Procedure: Quiescent murine fibroblasts were subjected to incubation with compounds of interest for 48 hours. Subsequent cell viability was determined via measuring Alamar Blue fluorescence.
Procedures • After overnight culture, pin compounds into wells at 100 nL/well using the CyBio CyBi-Well pinning instrument. • Return the plates to the tissue culture incubator and incubate the culture for an additional 48 hours at 37° C. under 5% CO2. • At the completion of this incubation, add Alamar Blue solution diluted 1:40 in PBS to each well (10 μL/well) to achieve a final dilution of 1:200. • Incubate the plates for an additional 2-3 hours at 37° C. under 5% CO2. • Read the Relative Fluorescence Intensity (RFU) of wells on a standard plate reader as a measure of relative cell growth. […] 4.4.

[8] = Solubility in PBS pH 7.4 with 1% DMSO; conditions: for solubility at 24 h: phosphate buffered saline with 1% DMSO, pH 7.4, aqueous buffer, kinetic from dmso stock
Procedure: Solubility was determined in phosphate buffered saline (PBS) pH 7.4 with 1% DMSO. Each compound was prepared in duplicate at 100 μM in both 100% DMSO and PBS with 1% DMSO. Compounds were allowed to equilibrate at room temperature with a 250 rpm orbital shake for 24 hours. After equilibration, samples were analyzed by UPLC-MS (Waters, Milford, Mass.) with compounds detected by SIR detection on a single quadrupole mass spectrometer. The DMSO samples were used to create a two-point calibration curve to which the response in PBS was fit.

[9] = Table 8, n = 3, glycerol media, 48 hours, tested up to 3 μM
[10] = Table 8, n = 3, glucose media, 48 hours, tested up to 3 μM
[11] = Candida albicans, CACI2; read-out: Growth Inhibition Activity, IC50 (μM), C. albicans CaCi-2, values marked ‡
[12] = CACI17, Table 4, n = 3, 48 hours, tested up to 26 μM
[13] = Nakaseomyces glabratus, ATCC2001, Table 8, n = 3, glycerol media, 48 hours, tested up to 3 μM
[14] = Nakaseomyces glabratus, ATCC2001, Table 8, n = 3, glucose media, 48 hours, tested up to 3 μM
[15] = Saccharomyces cerevisiae, W303, Table 8, n = 3, glycerol media, 48 hours, tested up to 3 μM
[16] = Saccharomyces cerevisiae, W303, Table 8, n = 3, glucose media, 48 hours, tested up to 3 μM
[17] = Nakaseomyces glabratus, ATCC2001, 48 h
[18] = Saccharomyces cerevisiae, W303, 48 h

C[C@@H]1[C@H](O)[C@@H](C)/C=C/C=C/C=C/C=C/C=C/C=C/C=C/[C@H](O[C@@H]2O[C@H](C)[C@@H](O)[C@H](N)[C@@H]2O)C[C@@H]2O[C@](O)(C[C@@H](O)C[C@@H](O)[C@H](O)CC[C@@H](O)C[C@@H](O)CC(=O)O[C@H]1C)C[C@H](O)[C@H]2C(=O)O [Amphotericin B, reference compound]
IC50 [1, 9]: 0.62 µM | Growth inhibition of C. glabrata on glycerol IC50 ([1]; figure legends and Tables 9, 10, 13, AID 623965): significantly inhibited | IC50 [2, 10]: 1.2 µM | Growth inhibition of C. glabrata on glucose IC50 ([2]; figure legends and Tables 9, 10, 13, AID 623967): significantly inhibited | IC50 [3, 9]: 0.26 µM | Growth inhibition of S. cerevisiae on glycerol IC50 ([3]; figure legends and Tables 9, 10, 13, AID 623969): significantly inhibited | IC50 [4, 10]: 0.38 µM | Growth inhibition of S. cerevisiae on glucose IC50 ([4]; figure legends and Tables 9, 10, 13, AID 623971): significantly inhibited

CCOC(=O)N1C(=O)C2(CCCCC2)N(c2ccc(F)cc2)C1=S [compound 56604860]
IC50 [5, 11]: 0.04 µM | IC50 [6, 12]: 1 µM | Growth Inhibition Activity, IC50 (μM), 3T3 Fibroblasts (n = 1) [7]: Inactive | IC50 [1, 13]: 0.011 µM | IC50 [2, 14]: > 3 µM | IC50 [3, 15]: 0.004 µM | IC50 [4, 16]: > 3 µM | PBS Solubility ([8]; Table 4, PBS pH 7.4 with 1% DMSO, 24 hours, room temperature): 1.1 µM

CCOC(=O)N1C(=O)C2(CCCCC2)N(c2ccccc2)C1=S [compound 56604821]
IC50 ([5]; Candida albicans, CACI2, 48 h, read-out: Growth Inhibition Activity, IC50 (μM), C. albicans (n = 3) CaCi-2): 0.2 µM | IC50 ([6]; CACI17, 48 h): 4.2 µM | Growth Inhibition Activity, IC50 (μM), 3T3 Fibroblasts (n = 1) [7]: Inactive | IC50 [1, 17]: 0.026 µM | IC50 [2, 17]: > 3 µM | IC50 [3, 18]: 0.015 µM | IC50 [4, 18]: > 3 µM | solubility at 24 h [8]: 1.6 µM (≈ 0.532 µg/mL)

CCOC(=O)N1C(=O)C2(CCCCC2)N(c2ccc(Cl)cc2)C1=S [compound 56604865]
IC50 ([5]; Candida albicans, CACI2, read-out: Growth Inhibition Activity, IC50 (μM), C. albicans CaCi-2, values marked ‡): 0.06 µM | IC50 ([6]; CACI17, 48 h): 1.4 µM | IC50 ([7]; Mus musculus, NIH3T3, 48 h, read-out: Growth Inhibition Activity, IC50 (μM), 3T3 Fibroblasts (n = 1)): 22.3 µM | IC50 [1, 17]: 0.022 µM | IC50 [2, 17]: > 3 µM | IC50 [3, 18]: 0.006 µM | IC50 [4, 18]: > 3 µM | solubility at 24 h [8]: < 1 µM

CCOC(=O)N1C(=O)C2(CCCCC2)N(c2ccc(C#N)cc2)C1=S [compound 56604847]
IC50 [5, 11]: 0.08 µM | IC50 [6, 12]: 1.8 µM | Growth Inhibition Activity, IC50 (μM), 3T3 Fibroblasts (n = 1) [7]: Inactive | IC50 [1, 13]: 0.033 µM | IC50 [2, 14]: > 3 µM | IC50 [3, 15]: 0.004 µM | IC50 [4, 16]: > 3 µM | solubility at 24 h [8]: < 1 µM
